Patent publication US7235547B2, “Pharmaceutical composition comprising an AChE inhibitor and a mGluR2 antagonist” (priority 2003, dated 2007)
Counter-ions that a name gives are not always drawn.

Tested on: scopolamine-induced working memory deficit
Experiment: scopolamine-induced working memory deficit in the delayed match to position (DMTP) task in rats
Type: in vivo, Male Lister Hooded rats
Conditions: for effect on the scopolamine deficit in DMTP task (percent correct responses): combination: Compound 23 1 mg/kg p.o. 180 min prior to testing, donepezil hydrochloride 1 mg/kg p.o. 145 min later, scopolamine 0.06 mg/kg s.c. 5 min later
Method: Except for during testing, water was available ad libitum at all times. The rats were tested in Med Associates operant chambers, equipped with 2 retractable levers positioned 7.5 cm either side of a central food tray. A single stimulus light (cue light) was positioned above each lever. Aluminum barriers (5.5 cm chamber extension) were fitted within the chamber to separate each lever from the food magazine. The chambers were controlled by Kestrel software (Conclusive Solutions, Harlow, UK) operating on an IBM compatible PC.
Rats were initially trained to lever press for a food reward (45 mg Formula ‘P’ pellet, Noyes, N.H.) on a continuous reinforcement (CRF) schedule with each lever presented singly an equal number of times (total 96 trials). On acquiring this behaviour the animals were next trained to make a matching response. Each trial consisted of a single lever being inserted into the chamber and the illumination of the appropriate stimulus light (sample stage). The rat was required to press the sample lever, which then immediately retracted. […] If the animal pressed the other lever, it was recorded as an incorrect response and was unrewarded. […] The next trial was signalled by illumination of the house light for a 5 s period, after which the sample lever was extended. The number of such trials per session was 96.
Initially, the delay between the sample and choice stage was 1 s after the first magazine nose poke. Once the animals had learned the matching rule (≧90% correct), the delay period was increased to 1, 2 and 4 s (32 trials per delay), up to a final level of 1, 2, 4, 8, 16, 24s. Sixteen trials were run at each delay. […] The parameters measured include % correct (total no. correct/(total no. correct+incorrect)×100) both for the total session and for each delay interval. Percent correct responses at each delay interval were analysed using an analysis of variance (ANOVA) with repeated measures on Treatment and Delay. Total percent correct responses were analysed using an ANOVA with repeated measures on Treatment. Post hoc tests were conducted by Newman-Keuls test. Statistical significance was accepted at P<0.05.
The experiment was conducted using a repeated measures design with each animal receiving each treatment according to a counterbalanced design. Animals were run 5 days/-week, with drug treatment on 2 test days per week, separated by at least 2 days. […] Scopolamine hydrobromide was dissolved in saline solution and was administered s.c. using an injection volume of 1 ml/kg.

SMILES | effect on the scopolamine deficit in DMTP task (percent correct responses) | total correct responses collapsed over the delay intervals (scopolamine 0.06 mg/kg s.c.) | percent correct responses (per delay interval) (scopolamine 0.06 mg/kg s.c., delays 1-24 s)
COc1cc2c(cc1OC)C(=O)C(CC1CCN(Cc3ccccc3)CC1)C2 (stereo not shown) [donepezil hydrochloride] | reversal of the scopolamine deficit |  | 
CN1[C@@H]2C[C@@H](OC(=O)[C@H](CO)c3ccccc3)C[C@H]1[C@@H]1O[C@@H]12 [Scopolamine, Scopolamine hydrobromide] |  | significant reduction | significant delay-dependent reduction
Cc1cc(-c2cccc(C3=Nc4cc(C)c(C(F)(F)F)cc4NC(=O)C3)c2)cc(C)n1 [Compound 23, 4-[3-(2,6-dimethyl-pyridin-4-yl)-phenyl]-7-methyl-8-trifluoromethyl-1,3-dihydro benzo[b][1,4]diazepin-2-one] | reversal of the scopolamine deficit |  | 
